Data reported in paper PMC3954981 (Bioorganic & medicinal chemistry, 2014).
Read-outs that look alike come from different tables or passages of the source.

How the values were obtained:
PAD4 [1] = target: T1, PAD4 (Homo sapiens, UniProt Q9UM07); test: Gel-based competitive ABPP with RFA; assay type: binding; conditions: RFA 10 μM, PAD4 2 μM, inhibitor 0–50 μM
PAD2 [2] = target: T2, PAD2 (Homo sapiens, UniProt Q9Y2J8); test: Inactivation kinetics; assay type: biochemical
PAD4 C645A = PAD4 C645A (Homo sapiens, UniProt Q9UM07, C645A); test: MALDI-MS analysis of inhibitor-treated enzyme; assay type: binding; conditions: 1:10 enzyme:inhibitor, 1 h, PAD4 C645A 5 μM
WT-PAD4 = WT-PAD4 (Homo sapiens, UniProt Q9UM07); test: MALDI-MS analysis of inhibitor-treated enzyme; assay type: binding; conditions: 1:10 enzyme:inhibitor, 1 h, WT-PAD4 3 μM
PADs 1, 2, 3, and 4 = test: Library screening, inhibition of the PADs described in words; assay type: biochemical, human; conditions: 10 μM, PADs 1–4
PAD4 [3] = target: T1, PAD4; test: Substrate; assay type: biochemical; conditions: inactivator 0.5 μM; BAEE 2 mM and 10 mM
PAD3 [4] = target: T3, PAD3 (Homo sapiens, UniProt Q9ULW8); test: Inactivation kinetics; assay type: biochemical; conditions: read-out: kinact/KI (apparent), PAD3
T3 sequence (Q9ULW8 1-664): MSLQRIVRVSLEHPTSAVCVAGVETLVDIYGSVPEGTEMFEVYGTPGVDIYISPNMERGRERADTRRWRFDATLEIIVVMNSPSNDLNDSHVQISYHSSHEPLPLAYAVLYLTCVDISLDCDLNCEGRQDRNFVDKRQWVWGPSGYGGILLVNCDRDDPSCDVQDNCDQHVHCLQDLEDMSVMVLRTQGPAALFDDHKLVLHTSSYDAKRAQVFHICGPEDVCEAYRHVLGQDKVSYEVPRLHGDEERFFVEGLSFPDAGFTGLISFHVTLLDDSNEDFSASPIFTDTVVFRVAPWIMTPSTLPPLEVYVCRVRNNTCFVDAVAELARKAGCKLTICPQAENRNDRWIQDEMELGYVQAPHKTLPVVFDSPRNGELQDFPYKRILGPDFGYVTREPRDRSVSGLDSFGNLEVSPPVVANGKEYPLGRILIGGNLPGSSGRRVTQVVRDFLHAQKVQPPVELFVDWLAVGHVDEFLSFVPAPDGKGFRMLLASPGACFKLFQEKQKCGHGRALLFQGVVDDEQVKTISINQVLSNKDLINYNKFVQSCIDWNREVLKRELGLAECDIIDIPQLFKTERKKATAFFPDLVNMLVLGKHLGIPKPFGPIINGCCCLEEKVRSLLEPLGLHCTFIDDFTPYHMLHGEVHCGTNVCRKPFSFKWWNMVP

PAD4 [5] = target: T1, PAD4; test: Irreversibility study; assay type: biochemical; conditions: for recovery of PAD4 enzymatic activity after dialysis: 100 μM compound, 1 h, dialysis overnight
PAD2 [6] = target: T2, PAD2; test: Gel-based competitive ABPP with RFA; assay type: binding; conditions: RFA 10 μM, PAD2 2 μM, inhibitor 0–50 μM
PAD2 [7] = target: T2, PAD2; test: MALDI-MS analysis of inhibitor-treated enzyme; assay type: binding; conditions: 1:10 enzyme:inhibitor, 1 h, PAD2 3 μM
PAD4 [8] = target: T1, PAD4; test: Inactivation kinetics; assay type: biochemical
PAD1 [9] = target: T4, PAD1 (Homo sapiens, UniProt Q9ULC6); test: Inactivation kinetics; assay type: biochemical; conditions: read-out: kinact/KI (apparent), PAD1
T4 sequence (Q9ULC6 1-663): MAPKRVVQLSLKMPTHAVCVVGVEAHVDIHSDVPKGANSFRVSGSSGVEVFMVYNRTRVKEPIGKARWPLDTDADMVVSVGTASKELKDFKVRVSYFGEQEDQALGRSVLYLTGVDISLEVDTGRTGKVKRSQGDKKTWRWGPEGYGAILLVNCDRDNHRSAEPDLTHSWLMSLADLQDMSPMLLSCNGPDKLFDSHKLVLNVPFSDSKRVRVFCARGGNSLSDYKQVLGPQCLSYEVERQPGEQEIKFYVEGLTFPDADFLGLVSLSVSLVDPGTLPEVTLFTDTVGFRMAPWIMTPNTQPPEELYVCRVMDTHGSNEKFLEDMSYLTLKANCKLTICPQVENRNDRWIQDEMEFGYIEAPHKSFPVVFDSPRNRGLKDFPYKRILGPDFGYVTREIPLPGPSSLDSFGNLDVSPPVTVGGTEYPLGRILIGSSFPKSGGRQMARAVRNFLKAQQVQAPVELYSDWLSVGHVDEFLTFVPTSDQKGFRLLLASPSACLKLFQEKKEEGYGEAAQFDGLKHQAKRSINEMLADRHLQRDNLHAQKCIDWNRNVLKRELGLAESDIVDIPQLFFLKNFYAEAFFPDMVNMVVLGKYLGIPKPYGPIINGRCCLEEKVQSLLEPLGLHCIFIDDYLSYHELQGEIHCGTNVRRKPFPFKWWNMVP

U2OS cells = test: XTT cell viability assay; conditions: 10 μM, 3 days
NIH 3T3 cells = test: XTT cell viability assay; conditions: 10 μM, 3 days
PAD1 [10] = target: T4, PAD1; test: Irreversibility study; assay type: biochemical; conditions: 170-fold excess of 17, dialyzed 20 h
PAD3 [11] = target: T3, PAD3; test: Irreversibility study; assay type: biochemical; conditions: 170-fold excess of 17, dialyzed 20 h
PAD2 [12] = target: T2, PAD2; test: Irreversibility study; assay type: biochemical; conditions: 170-fold excess of 17, dialyzed 20 h
PAD4 [13] = target: T1, PAD4; conditions: cited from earlier work
PADs = conditions: second generation mechanism-based inactivator; cited from earlier work
[14] = read-out: kinact/KI (apparent), PAD2
[15] = read-out: kinact/KI (apparent), PAD4

T2 sequence (Q9Y2J8 whole entry): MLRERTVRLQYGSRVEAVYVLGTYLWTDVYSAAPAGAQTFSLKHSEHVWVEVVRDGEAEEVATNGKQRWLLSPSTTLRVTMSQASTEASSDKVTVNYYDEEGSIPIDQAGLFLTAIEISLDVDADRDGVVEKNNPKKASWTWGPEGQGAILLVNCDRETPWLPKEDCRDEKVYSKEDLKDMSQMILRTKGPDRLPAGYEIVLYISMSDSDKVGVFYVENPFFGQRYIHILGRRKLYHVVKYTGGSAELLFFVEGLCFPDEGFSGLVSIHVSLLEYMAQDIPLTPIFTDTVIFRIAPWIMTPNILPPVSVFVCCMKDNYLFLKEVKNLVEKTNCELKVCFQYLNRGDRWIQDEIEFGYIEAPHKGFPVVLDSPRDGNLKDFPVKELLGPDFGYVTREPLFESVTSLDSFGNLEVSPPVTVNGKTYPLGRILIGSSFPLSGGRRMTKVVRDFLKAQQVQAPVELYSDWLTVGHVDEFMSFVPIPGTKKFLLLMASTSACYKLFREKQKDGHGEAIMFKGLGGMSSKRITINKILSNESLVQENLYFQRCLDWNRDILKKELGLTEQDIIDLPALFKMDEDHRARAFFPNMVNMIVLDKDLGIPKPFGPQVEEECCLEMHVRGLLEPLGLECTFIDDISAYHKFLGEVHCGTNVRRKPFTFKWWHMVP
T1 sequence (Q9UM07 whole entry): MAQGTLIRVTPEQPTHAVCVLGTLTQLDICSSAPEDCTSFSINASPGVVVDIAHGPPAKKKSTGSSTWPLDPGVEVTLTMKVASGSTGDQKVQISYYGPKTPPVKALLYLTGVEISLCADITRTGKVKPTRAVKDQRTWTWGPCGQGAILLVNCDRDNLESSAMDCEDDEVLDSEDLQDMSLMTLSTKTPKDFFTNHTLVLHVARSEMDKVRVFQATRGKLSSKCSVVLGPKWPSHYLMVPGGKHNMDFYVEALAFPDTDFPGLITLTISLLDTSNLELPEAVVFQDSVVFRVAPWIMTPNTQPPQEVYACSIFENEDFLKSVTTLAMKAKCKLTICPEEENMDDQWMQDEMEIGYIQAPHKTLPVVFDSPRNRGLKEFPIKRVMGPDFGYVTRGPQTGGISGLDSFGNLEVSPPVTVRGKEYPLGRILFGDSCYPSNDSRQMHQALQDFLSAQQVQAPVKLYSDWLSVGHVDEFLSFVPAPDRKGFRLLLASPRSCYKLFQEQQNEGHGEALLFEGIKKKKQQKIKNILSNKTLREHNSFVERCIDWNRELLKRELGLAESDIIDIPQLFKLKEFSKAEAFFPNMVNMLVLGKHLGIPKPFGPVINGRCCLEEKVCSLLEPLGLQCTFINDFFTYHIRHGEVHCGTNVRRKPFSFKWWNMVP
Sequence of PAD4 C645A (Q9UM07 whole entry C645A): as the sequence (Q9UM07 whole entry) above, with C645A counted along it
Sequence of WT-PAD4 (Q9UM07 whole entry): as the sequence (Q9UM07 whole entry) above

NC1=CC(=O)c2ccc(-c3ccccn3)nc2C1=O [Compound 3]
labeling of PAD4 by RFA (PAD4 [1]): prevent labeling | kinact (PAD2 [2]; read-out: kinact, PAD2): 0.00117 s⁻¹ | kinact/KI (PAD2 [2]; read-out: kinact/KI, PAD2): 138 M⁻¹ s⁻¹ | mass shift of PAD4 C645A (Δ Da) (PAD4 C645A): 737 Da | mass shift of WT-PAD4 (Δ Da) (WT-PAD4): 692 Da | inhibition of the PADs (in words) (PADs 1, 2, 3, and 4): strong inhibition | substrate protection against inactivation of PAD4 (PAD4 [3]): little substrate protection was observed | kinact/KI (PAD3 [4]): 30 M⁻¹ s⁻¹ | recovery of PAD4 enzymatic activity after dialysis (PAD4 [5]): little to no activity is recovered | labeling of PAD2 by RFA (PAD2 [6]): prevent labeling | mass shift of PAD2 (PAD2 [7]): 324 Da | kinact/KI (PAD4 [8]; read-out: kinact/KI, PAD4): 95 M⁻¹ s⁻¹ | kinact/KI (PAD1 [9]): 53.3 M⁻¹ s⁻¹

COC(=O)c1nc(C(C)=O)c2[nH]c3ccccc3c2c1C [Compound 4]
inhibition of the PADs (in words) (PADs 1, 2, 3, and 4): little to no inhibition

COC(=O)c1cccc(-c2ccc3ccc(Br)c(O)c3n2)n1 [Compound 5]
inhibition of the PADs (in words) (PADs 1, 2, 3, and 4): no inhibition

COC(=O)c1nc(C(=O)OC)c(NC(C)=O)c(-c2ccccc2Br)c1C [Compound 6]
inhibition of the PADs (in words) (PADs 1, 2, 3, and 4): little to no inhibition

CCOC(=O)c1nc(C(=O)OCC)c(C(=O)OCC)c(-c2ccc(OC)c(OC)c2OCc2ccccc2)c1C [Compound 7]
inhibition of the PADs (in words) (PADs 1, 2, 3, and 4): little to no inhibition

COC(=O)c1nc(C(=O)OC)c(N)c(-c2ccccc2Br)c1C [Compound 8]
inhibition of the PADs (in words) (PADs 1, 2, 3, and 4): little to no inhibition

COC1=C(Br)C(=O)c2ncccc2C1=O [Compound 10]
kinact/KI (PAD2 [2]; [14]): 63.3 M⁻¹ s⁻¹ | inhibition of the PADs (in words) (PADs 1, 2, 3, and 4): strong inhibition | kinact/KI (PAD3 [4]): 25 M⁻¹ s⁻¹ | recovery of PAD4 enzymatic activity after dialysis (PAD4 [5]): little to no activity is recovered | cells remaining viable, U2OS (U2OS cells): retain significant viability | cells remaining viable, NIH 3T3 (NIH 3T3 cells): retain significant viability | kinact/KI (PAD4 [8]; [15]): 81.7 M⁻¹ s⁻¹ | kinact/KI (PAD1 [9]): 60 M⁻¹ s⁻¹

NC1=CC(=O)c2cccnc2C1=O [Compound 14]
kinact/KI (PAD2 [2]; [14]): 86.7 M⁻¹ s⁻¹ | inhibition of the PADs (in words) (PADs 1, 2, 3, and 4): strong inhibition | kinact/KI (PAD3 [4]): 51.7 M⁻¹ s⁻¹ | recovery of PAD4 enzymatic activity after dialysis (PAD4 [5]): little to no activity is recovered | kinact/KI (PAD4 [8]; [15]): 93.3 M⁻¹ s⁻¹ | kinact/KI (PAD1 [9]): 76.7 M⁻¹ s⁻¹

NC1=CC(=O)c2ccc(-c3cccc(C(=O)O)n3)nc2C1=O [Compound 17]
labeling of PAD4 by RFA (PAD4 [1]): prevent labeling | inhibition of the PADs (in words) (PADs 1, 2, 3, and 4): strong inhibition | PAD1 activity regained after dialysis (PAD1 [10]): Little to no activity was regained | recovery of PAD4 enzymatic activity after dialysis (PAD4 [5]): little to no activity is recovered | PAD4 activity regained after dialysis (PAD4 [5]; 170-fold excess of 17, dialyzed 20 h): Little to no activity was regained | PAD3 activity regained after dialysis (PAD3 [11]): Little to no activity was regained | labeling of PAD2 by RFA (PAD2 [6]): prevent labeling | cells remaining viable, U2OS (U2OS cells): retain significant viability | cells remaining viable, NIH 3T3 (NIH 3T3 cells): retain significant viability | PAD2 activity regained after dialysis (PAD2 [12]): Little to no activity was regained

NC1=C(N)C(=O)c2ccccc2C1=O [Compound 19]
inhibition of the PADs (PADs 1, 2, 3, and 4): ~ 50%

NC1=CC(=O)c2ccc(-c3cc(C(=O)O)ccc3N)nc2C1=O [Compound 22]
inhibition of the PADs (in words) (PADs 1, 2, 3, and 4): loss in potency

O=C(O)c1cccc(-c2ccc3ccc(Br)c(OCc4ccccc4)c3n2)n1 [Compound 23]
inhibition of the PADs (in words) (PADs 1, 2, 3, and 4): no inhibition

COC(=O)c1cc(-c2ccccc2)c(C(=O)OC)c(-c2ccc3ccccc3n2)n1 [Compound 24]
inhibition of the PADs (in words) (PADs 1, 2, 3, and 4): no inhibition

COC(=O)c1nnc(C(=O)OC)c(-c2ccc3c([N+](=O)[O-])c(OC)ccc3n2)n1 [Compound 25]
inhibition of the PADs (in words) (PADs 1, 2, 3, and 4): no inhibition

COC(=O)c1nnc(C(=O)OC)c(-c2ccc3cc(OC)ccc3n2)n1 [Compound 26]
inhibition of the PADs (in words) (PADs 1, 2, 3, and 4): no inhibition

COc1ccc2ncccc2c1[N+](=O)[O-] [Compound 29]
inhibition of the PADs (in words) (PADs 1, 2, 3, and 4): no inhibition

COc1ccc2nc(C#N)ccc2c1 [Compound 30]
inhibition of the PADs (in words) (PADs 1, 2, 3, and 4): no inhibition

COC1=C(N)C(=O)c2nc(-c3nc(C(=O)O)c(C)c(-c4ccc(OC)c(OC)c4O)c3N)ccc2C1=O [Streptonigrin, reference compound]
labeling of PAD4 by RFA (PAD4 [1]): decreased the labeling | preferential inhibition of PAD4 versus PAD1 (PAD4 [13]): 119 fold | preferential inhibition of PAD4 versus PAD2 (PAD4 [13]): 37 fold | preferential inhibition of PAD4 versus PAD3 (PAD4 [13]): 126 fold | mass shift of PAD4 C645A (Δ Da) (PAD4 C645A): 924 Da | mass shift of WT-PAD4 (Δ Da) (WT-PAD4): 710 Da | labeling of PAD2 by RFA (PAD2 [6]): decreased the labeling | mass shift of PAD2 (PAD2 [7]): 469 Da

CC(=O)N[C@H](C(=O)N[C@@H](CC(=O)O)C(=O)N[C@@H](CCCN=C(N)CF)C(N)=O)[C@@H](C)O [Thr-Asp-F-amidine (TDFA), Thr-Asp-F-amidine]
kinact/KI (PADs): 26,000 M^−1min^−1
